Data published in ChEMBL document CHEMBL5096238 (J Med Chem, 2022).

Legend:
Hs746T = assay: cells; details: Homo sapiens, 120 h
[1] = target: Hepatocyte growth factor receptor (Homo sapiens, UniProt P08581); assay: Inhibition of N-terminal His/SUMO tagged wild type human c-Met (1038 to 1346 residues) transfected in Escherichia coli using Tyr06 peptide as substrate incubated for 1 hr in presence of ATP by FRET-based Z'-Lyte assay
Chain of Hepatocyte growth factor receptor (P08581 whole entry, the tested form may be a part): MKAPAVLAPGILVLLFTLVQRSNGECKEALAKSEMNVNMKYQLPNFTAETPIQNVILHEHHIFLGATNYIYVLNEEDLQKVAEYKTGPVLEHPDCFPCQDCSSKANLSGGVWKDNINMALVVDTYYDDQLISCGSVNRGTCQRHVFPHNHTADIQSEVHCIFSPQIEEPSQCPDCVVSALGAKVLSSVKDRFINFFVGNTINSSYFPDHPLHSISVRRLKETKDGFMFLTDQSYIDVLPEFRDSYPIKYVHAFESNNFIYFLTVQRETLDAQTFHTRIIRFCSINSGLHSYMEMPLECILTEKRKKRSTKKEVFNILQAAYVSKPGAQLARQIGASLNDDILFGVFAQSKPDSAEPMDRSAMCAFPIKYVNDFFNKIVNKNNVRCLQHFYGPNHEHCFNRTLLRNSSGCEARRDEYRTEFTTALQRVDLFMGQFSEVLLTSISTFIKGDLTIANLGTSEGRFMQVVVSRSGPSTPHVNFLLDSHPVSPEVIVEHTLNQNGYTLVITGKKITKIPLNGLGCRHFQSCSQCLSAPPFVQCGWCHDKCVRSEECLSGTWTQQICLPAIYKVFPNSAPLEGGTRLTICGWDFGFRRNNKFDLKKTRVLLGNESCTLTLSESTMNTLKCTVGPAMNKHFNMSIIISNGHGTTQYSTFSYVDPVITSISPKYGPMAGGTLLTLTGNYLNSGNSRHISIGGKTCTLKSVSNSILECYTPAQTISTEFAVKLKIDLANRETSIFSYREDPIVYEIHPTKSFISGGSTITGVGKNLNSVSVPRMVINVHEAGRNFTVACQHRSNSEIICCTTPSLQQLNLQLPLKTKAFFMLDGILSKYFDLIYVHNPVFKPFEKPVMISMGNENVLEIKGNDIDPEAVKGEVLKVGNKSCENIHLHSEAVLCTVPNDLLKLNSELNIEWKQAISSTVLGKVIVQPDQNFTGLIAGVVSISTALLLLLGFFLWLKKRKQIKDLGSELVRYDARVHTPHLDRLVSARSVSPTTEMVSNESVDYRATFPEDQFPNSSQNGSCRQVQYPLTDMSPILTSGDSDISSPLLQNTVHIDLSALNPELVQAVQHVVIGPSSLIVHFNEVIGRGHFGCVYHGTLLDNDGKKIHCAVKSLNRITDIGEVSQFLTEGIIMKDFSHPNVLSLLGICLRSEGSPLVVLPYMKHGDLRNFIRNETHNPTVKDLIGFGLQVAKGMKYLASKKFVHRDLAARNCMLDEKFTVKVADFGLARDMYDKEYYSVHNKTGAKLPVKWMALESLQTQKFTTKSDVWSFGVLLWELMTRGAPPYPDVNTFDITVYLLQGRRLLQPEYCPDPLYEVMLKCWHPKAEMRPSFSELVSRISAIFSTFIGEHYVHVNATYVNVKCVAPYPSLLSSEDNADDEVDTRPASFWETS

| IC50 (Hs746T) | IC50 [1] | SMILES |
| --- | --- | --- |
| 112 nM | 5.4 nM | Cn1cc(-c2cnc3ccc(CCn4nc(-c5cccc(C(F)(F)F)c5)ccc4=O)cc3c2)cn1 |
| 397 nM | 10.6 nM | Cn1cc(-c2cnc3ccc(CCn4nc(-c5cccc(F)c5)ccc4=O)cc3c2)cn1 |
| 47.8 nM | 13.9 nM | CNC(=O)c1ccc(-c2ccc(=O)n(CCc3ccc4ncc(N5CCC(N6CCN(C)CC6)CC5)cc4c3)n2)cc1C(F)(F)F |
| 228 nM | 7.6 nM | Cn1cc(-c2cnc3ccc(CCn4nc(-c5cc(F)c(F)c(F)c5)ccc4=O)cc3c2)cn1 |
| 22.8 nM | 14.3 nM | CNC(=O)c1ccc(-c2ccc(=O)n(CCc3ccc4ncc(N5CCC(N6CCCC6)CC5)cc4c3)n2)cc1C(F)(F)F |
| 212 nM | 11.4 nM | CNC(=O)c1ccc(-c2ccc(=O)n(CCc3ccc4ncc(N5CC6CNCC6C5)cc4c3)n2)cc1C(F)(F)F (centres undefined) |
| 130 nM | 10.5 nM | Cn1cc(-c2cnc3ccc(CCn4nc(-c5cccc(C#N)c5)ccc4=O)cc3c2)cn1 |
| 1360 nM | 14.7 nM | COc1cccc(-c2ccc(=O)n(CCc3ccc4ncc(-c5cnn(C)c5)cc4c3)n2)c1 |
|  | > 10000 nM | Cn1cc(-c2ccc(-c3ccc(=O)n(Cc4ccc5ncccc5c4)n3)cc2)cn1 |
| 2500 nM | 10.1 nM | Cn1cc(-c2cnc3ccc(CCn4nc(-c5ccc(C(=O)O)cc5)ccc4=O)cc3c2)cn1 |
|  | 171 nM | O=c1ccc(-c2ccccc2)nn1Cc1ccc2ncc(N3CCOCC3)cc2c1 |
| 45.9 nM | 7.4 nM | CNC(=O)c1ccc(-c2ccc(=O)n(CCc3ccc4ncc(-c5cnn(CCOC)c5)cc4c3)n2)cc1C(F)(F)F |
|  | 208 nM | O=c1ccc(-c2ccc(N3CCOCC3)cc2)nn1CCc1ccc2ncccc2c1 |
| 115 nM | 2.8 nM | CNC(=O)c1ccc(-c2ccc(=O)n(CCc3ccc4ncc(-c5cnn(CCO)c5)cc4c3)n2)cc1C(F)(F)F |
| 447 nM | 78.6 nM | CNC(=O)c1ccc(-c2ccc(=O)n(CCOc3ccc4ncc(-c5cnn(C)c5)cc4c3)n2)cc1C(F)(F)F |
|  | 138 nM | Cn1cc(-c2cnc3ccc(Cn4nc(-c5ccccc5)ccc4=O)cc3c2)cn1 |
| 436 nM | 6.8 nM | Cn1cc(-c2cnc3ccc(CCn4nc(-c5cccc(Br)c5)ccc4=O)cc3c2)cn1 |
|  | 2000 nM | O=c1ccc(-c2ccccc2)nn1CCc1ccc2ncccc2c1 |
| 20.1 nM | 4.2 nM | CNC(=O)c1ccc(-c2ccc(=O)n(CCc3ccc4ncc(-c5cnn(C6CCNCC6)c5)cc4c3)n2)cc1C(F)(F)F |
| 638 nM | 25.9 nM | Cn1cc(-c2cnc3ccc(CCn4nc(-c5ccccc5F)ccc4=O)cc3c2)cn1 |
|  | 41.6 nM | O=c1ccc(-c2ccccc2)nn1CCc1ccc2ncc(N3CCOCC3)cc2c1 |
| 428 nM | 26.4 nM | CNC(=O)c1ccc(-c2ccc(=O)n(CCc3ccc4ncc(NCCN5CCCCC5)cc4c3)n2)cc1C(F)(F)F |
|  | > 10000 nM | O=c1ccc(-c2ccc(N3CCOCC3)cc2)nn1Cc1ccc2ncccc2c1 |
|  | 663 nM | Cn1cc(-c2ccc(-c3ccc(=O)n(CCc4ccc5ncccc5c4)n3)cc2)cn1 |

| IC50 (Hs746T) | IC50 [1] | SMILES |
| --- | --- | --- |
| 331 nM | 15.1 nM | Cn1cc(-c2cnc3ccc(CCn4nc(-c5cccc([N+](=O)[O-])c5)ccc4=O)cc3c2)cn1 |
| 1900 nM | 7.5 nM | COC(=O)c1ccc(-c2ccc(=O)n(CCc3ccc4ncc(-c5cnn(C)c5)cc4c3)n2)cc1 |
| 137 nM | 4 nM | CNC(=O)c1ccc(-c2ccc(=O)n(CCc3ccc4ncc(-c5cnn(C)c5)cc4c3)n2)cc1 |
| 375 nM | 18.4 nM | CNC(=O)c1ccc(-c2ccc(=O)n(CCc3ccc4ncc(NCCN5CCOCC5)cc4c3)n2)cc1C(F)(F)F |
| 623 nM | 8.7 nM | Cn1cc(-c2cnc3ccc(CCn4nc(-c5cccc(N)c5)ccc4=O)cc3c2)cn1 |
| 3010 nM | 35.6 nM | CNC(=O)c1ccc(-c2ccc(=O)n(/C=C/c3ccc4ncc(-c5cnn(C)c5)cc4c3)n2)cc1C(F)(F)F |
| 488 nM | 18.3 nM | Cn1cc(-c2cnc3ccc(CCn4nc(-c5ccc(F)cc5)ccc4=O)cc3c2)cn1 |
| 199 nM | 10.7 nM | CNC(=O)c1ccc(-c2ccc(=O)n(CCc3ccc4ncc(N5CCN(C)CC5)cc4c3)n2)cc1C(F)(F)F |
| 303 nM | 4.9 nM | Cn1cc(-c2cnc3ccc(CCn4nc(-c5cccc(Cl)c5)ccc4=O)cc3c2)cn1 |
|  | 14.9 nM | Cn1cc(-c2cnc3ccc(CCn4nc(-c5ccccc5)ccc4=O)cc3c2)cn1 |
| 11.9 nM | 4.8 nM | CNC(=O)c1ccc(-c2ccc(=O)n(CCc3ccc4ncc(-c5cnn(C)c5)cc4c3)n2)cc1C(F)(F)F |
| 328 nM | 8.9 nM | Cc1cccc(-c2ccc(=O)n(CCc3ccc4ncc(-c5cnn(C)c5)cc4c3)n2)c1 |
| 102 nM | 4 nM | COC(=O)c1ccc(-c2ccc(=O)n(CCc3ccc4ncc(-c5cnn(C)c5)cc4c3)n2)cc1C(F)(F)F |
| 106 nM | 6.7 nM | CNC(=O)c1ccc(-c2ccc(=O)n(CCc3ccc4ncc(-c5cn[nH]c5)cc4c3)n2)cc1C(F)(F)F |
| 93.4 nM | 13.2 nM | CNC(=O)c1ccc(-c2ccc(=O)n(CCc3ccc4ncc(N5CCC(N6CCOCC6)CC5)cc4c3)n2)cc1C(F)(F)F |
| 38.5 nM | 9.9 nM | CNC(=O)c1ccc(-c2ccc(=O)n(CC(F)(F)c3ccc4ncc(-c5cnn(C)c5)cc4c3)n2)cc1C(F)(F)F |
| 187 nM | 5 nM | CNC(=O)c1ccc(-c2ccc(=O)n(CCc3ccc4ncc(-c5cnn(CCN6CCOCC6)c5)cc4c3)n2)cc1C(F)(F)F |
| 281 nM | 8.2 nM | Cc1ccc(-c2ccc(=O)n(CCc3ccc4ncc(-c5cnn(C)c5)cc4c3)n2)cc1 |
| 708 nM | 13.2 nM | Cn1cc(-c2cnc3ccc(CCn4nc(-c5ccc(F)c(F)c5)ccc4=O)cc3c2)cn1 |
| 1440 nM | 20.4 nM | Cn1cc(-c2cnc3ccc(CCn4nc(-c5cccc(OC(F)(F)F)c5)ccc4=O)cc3c2)cn1 |
| 10000 nM | 2280 nM | CNC(=O)c1ccc(-c2ccc(=O)n(NC(=O)c3ccc4ncc(-c5cnn(C)c5)cc4c3)n2)cc1C(F)(F)F |
| 4300 nM | 5.8 nM | Cn1cc(-c2cnc3ccc(CCn4nc(-c5ccc(C(=O)O)c(C(F)(F)F)c5)ccc4=O)cc3c2)cn1 |
|  | > 10000 nM | O=c1ccc(-c2ccccc2)nn1Cc1ccc2ncccc2c1 |
